Assay results reported in patent US6288091A, “Antiherpes virus compounds and methods for their preparation and use” (Boehringer Ingelheim Ltd., priority 1999, dated 2001).
Like-named read-outs stand apart in the source and are kept apart here.

Experiments:
[1] = Inhibition of HCMV replication, plaque reduction assay (PRA, Hs-68 cells); format: cell-based, Human Cytomegalovirus (HCMV); conditions: human
Procedure, shortened: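 Hs-68 monolayers (80–90% confluent) were infected with ~50 PFU HCMV AD169 for 2 h at 37°, then given compound in DMEM/5% inactivated FBS, refreshed after 4 days and kept 4 more days. Plaques were counted after formaldehyde fixation and crystal violet staining. EC50 derives from percent plaque reduction versus untreated wells.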

HSV-1 helicase-primase = biological target: T1, HSV-1 helicase-primase (Human herpesvirus 1, UniProt P10189+P10236); assay: HSV-1 DNA-dependent ATPase assay (inhibition of HSV-1 helicase-primase); format: biochemical
T1 construct: made in house; host or cells: Sf21 insect cells triply infected with recombinant baculoviruses (UL5, UL8, UL52)
Procedure, shortened: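 Holoenzyme (UL5/UL8/UL52) expressed in baculovirus-infected Sf21 cells and purified, used at 3 μg/mL with 4 mM ATP and 25 μM primed M13 ssDNA in HEPES pH 7.5, 5.5 mM MgCl2, 3.3% DMSO. Incubated 20 min at 34°. Released phosphate read by malachite green at 650 nm, and activity taken from net absorbance with versus without inhibitor.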

HCMV (strain AD169) = assay: Inhibition of HCMV replication, ELISA assay (Hs-68 cells); format: cell-based, Human Cytomegalovirus (HCMV); conditions: read-out: ELISA CMV EC50
Procedure, shortened: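 Hs-68 fibroblasts at 80–90% confluency infected with HCMV AD169 at MOI 0.01 PFU/cell for 2 h, washed, then cultured 8 days at 37 °C with test compound in DMEM/5% FBS. Late protein p28 detected by ELISA (mAb UL99, HRP/OPD, 450 nm); EC50 from % inhibition of replication.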

[2] = Group 1 Table 1 entries, read-out: Cytotoxic at this concentration (footnote *, PRA CMV)
[3] = Human betaherpesvirus 5, AD169, Hs68, Group 1 Table 1 entries
[4] = Group 1 Table 2 entries, read-out: Cytotoxic at this concentration (footnote, PRA CMV)
[5] = Group 1 Table 2 entries (Q = CH2)
[6] = Human betaherpesvirus 5, AD169, Hs68, Group 1 Table 2 entries

T1 sequence (P10192 whole entry): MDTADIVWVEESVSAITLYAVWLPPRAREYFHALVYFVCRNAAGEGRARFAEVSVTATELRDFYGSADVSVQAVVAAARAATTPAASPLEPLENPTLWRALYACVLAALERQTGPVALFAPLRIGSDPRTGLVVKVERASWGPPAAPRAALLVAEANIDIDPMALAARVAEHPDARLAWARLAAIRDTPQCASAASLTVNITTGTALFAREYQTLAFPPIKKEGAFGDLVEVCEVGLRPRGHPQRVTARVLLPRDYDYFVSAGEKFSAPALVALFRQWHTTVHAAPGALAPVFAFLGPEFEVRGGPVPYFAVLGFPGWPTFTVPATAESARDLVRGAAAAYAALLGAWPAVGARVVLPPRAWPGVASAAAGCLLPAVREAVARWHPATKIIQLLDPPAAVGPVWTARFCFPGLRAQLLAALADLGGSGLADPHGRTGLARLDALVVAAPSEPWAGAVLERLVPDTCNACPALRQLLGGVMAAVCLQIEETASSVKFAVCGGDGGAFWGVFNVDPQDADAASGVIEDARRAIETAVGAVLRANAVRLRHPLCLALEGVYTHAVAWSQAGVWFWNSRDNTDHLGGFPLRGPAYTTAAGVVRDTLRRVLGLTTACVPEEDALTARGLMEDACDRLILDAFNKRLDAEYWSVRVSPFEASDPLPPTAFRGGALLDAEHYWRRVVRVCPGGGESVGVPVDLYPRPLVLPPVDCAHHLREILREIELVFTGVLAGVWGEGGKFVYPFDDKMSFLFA
T1 sequence (P10236 whole entry): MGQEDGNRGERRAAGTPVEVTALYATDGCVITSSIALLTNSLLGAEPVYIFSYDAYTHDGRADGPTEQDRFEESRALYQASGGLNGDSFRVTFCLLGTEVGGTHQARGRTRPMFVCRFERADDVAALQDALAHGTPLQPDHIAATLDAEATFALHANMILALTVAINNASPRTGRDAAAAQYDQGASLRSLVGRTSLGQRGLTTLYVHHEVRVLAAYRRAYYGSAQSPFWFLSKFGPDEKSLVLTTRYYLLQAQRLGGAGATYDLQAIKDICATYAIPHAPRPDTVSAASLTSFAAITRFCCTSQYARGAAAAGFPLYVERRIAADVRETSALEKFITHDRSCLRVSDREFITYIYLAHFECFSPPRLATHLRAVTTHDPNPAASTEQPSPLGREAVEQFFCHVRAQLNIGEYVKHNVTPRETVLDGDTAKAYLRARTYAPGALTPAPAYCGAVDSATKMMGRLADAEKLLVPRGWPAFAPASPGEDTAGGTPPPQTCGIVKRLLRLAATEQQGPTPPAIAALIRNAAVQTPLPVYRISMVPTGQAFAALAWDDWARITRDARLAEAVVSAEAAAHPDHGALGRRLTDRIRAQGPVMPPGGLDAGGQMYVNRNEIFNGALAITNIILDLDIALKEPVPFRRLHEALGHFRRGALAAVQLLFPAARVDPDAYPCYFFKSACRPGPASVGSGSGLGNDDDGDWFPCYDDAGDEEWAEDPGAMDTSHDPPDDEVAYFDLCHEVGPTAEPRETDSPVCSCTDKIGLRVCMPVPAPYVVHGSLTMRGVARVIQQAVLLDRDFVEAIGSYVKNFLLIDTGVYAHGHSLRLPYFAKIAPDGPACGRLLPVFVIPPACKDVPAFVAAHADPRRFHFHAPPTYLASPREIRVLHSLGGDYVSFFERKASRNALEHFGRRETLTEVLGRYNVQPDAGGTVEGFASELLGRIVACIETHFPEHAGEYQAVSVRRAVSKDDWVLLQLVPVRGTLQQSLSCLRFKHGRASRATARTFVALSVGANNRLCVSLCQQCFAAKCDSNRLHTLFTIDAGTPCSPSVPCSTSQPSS
T1 sequence (P10189 whole entry): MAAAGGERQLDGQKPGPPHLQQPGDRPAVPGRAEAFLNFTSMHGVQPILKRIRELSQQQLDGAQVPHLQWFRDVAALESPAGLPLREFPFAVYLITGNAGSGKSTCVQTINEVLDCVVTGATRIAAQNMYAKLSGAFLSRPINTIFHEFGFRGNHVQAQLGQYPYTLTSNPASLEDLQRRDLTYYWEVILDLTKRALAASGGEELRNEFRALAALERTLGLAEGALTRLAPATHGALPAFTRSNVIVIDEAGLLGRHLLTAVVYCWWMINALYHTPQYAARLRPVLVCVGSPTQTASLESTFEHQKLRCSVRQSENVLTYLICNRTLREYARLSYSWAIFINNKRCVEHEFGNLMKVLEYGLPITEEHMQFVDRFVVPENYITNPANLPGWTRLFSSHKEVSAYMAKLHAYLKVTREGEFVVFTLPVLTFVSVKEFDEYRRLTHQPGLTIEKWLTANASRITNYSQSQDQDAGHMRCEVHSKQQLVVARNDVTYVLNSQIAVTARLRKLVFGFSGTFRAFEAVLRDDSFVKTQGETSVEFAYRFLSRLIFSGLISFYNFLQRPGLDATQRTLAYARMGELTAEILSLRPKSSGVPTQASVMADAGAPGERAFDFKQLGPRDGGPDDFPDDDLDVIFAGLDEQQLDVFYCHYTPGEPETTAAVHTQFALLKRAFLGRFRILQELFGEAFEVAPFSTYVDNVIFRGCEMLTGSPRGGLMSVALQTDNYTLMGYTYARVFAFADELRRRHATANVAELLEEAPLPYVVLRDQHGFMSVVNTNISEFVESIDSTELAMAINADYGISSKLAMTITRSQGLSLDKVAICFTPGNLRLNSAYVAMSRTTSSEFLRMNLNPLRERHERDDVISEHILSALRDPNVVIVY

SMILES	IC50 (HSV-1 helicase-primase; Group 1 Table 1 entries) [µM]	EC50 (HCMV (strain AD169); [3]) [µM]	other results
Nc1nc(-c2ccc(NC(=O)CNCCCc3ccccc3)cc2)cs1 [Example 3]	7.6	1.8	MCC at 192 h [1, 2]: 14 µM
Nc1nc(-c2ccc(NC(=O)CCNCc3cccc(F)c3)cc2)cs1 [Example 4]	–	–	MCC at 192 h [1, 4]: 3.7 µM; IC50 (HSV-1 helicase-primase; [5]): 5.2 µM; EC50 (HCMV (strain AD169); [6]): 6.6 µM
Nc1nc(-c2ccc(NC(=O)CCN(Cc3ccccc3)C(=O)C3CCCCC3)cc2)cs1 [Example 8]	–	–	MCC at 192 h [1, 4]: 13 µM; IC50 (HSV-1 helicase-primase; [5]): 1.7 µM; EC50 (HCMV (strain AD169); [6]): 8.6 µM
C[C@H](NCC(=O)Nc1ccc(-c2csc(N)n2)cc1)c1ccccc1 [Example 10]	6.9	2.2	MCC at 192 h [1, 2]: 30 µM
Nc1nc(-c2ccc(NC(=O)CCNC3Cc4ccccc4C3)cc2)cs1 [Example 10]	–	–	MCC at 192 h [1, 4]: 14 µM; IC50 (HSV-1 helicase-primase; [5]): 21 µM; EC50 (HCMV (strain AD169); [6]): 7.5 µM
Nc1nc(-c2ccc(NC(=O)CCN(Cc3ccccc3)C(=O)OCc3ccccc3)cc2)cs1 [Example 16]	–	–	MCC at 192 h [1, 4]: 8 µM; IC50 (HSV-1 helicase-primase; [5]): 1.8 µM; EC50 (HCMV (strain AD169); [6]): 7 µM
CN(CC(=O)Nc1ccc(-c2csc(N)n2)cc1)C(=O)c1ccncc1 [Example 22]	5.9	110	MCC at 192 h [1, 2]: 110 µM
Nc1nc(-c2ccc(NC(=O)CCNCC3CCCCC3)cc2)cs1 [Example 22]	–	–	MCC at 192 h [1, 4]: 6 µM; IC50 (HSV-1 helicase-primase; [5]): 29 µM; EC50 (HCMV (strain AD169); [6]): 4.8 µM
CCCC(CCC)NCCC(=O)Nc1ccc(-c2csc(N)n2)cc1 [Example 23]	–	–	MCC at 192 h [1, 4]: 9 µM; IC50 (HSV-1 helicase-primase; [5]): 45 µM; EC50 (HCMV (strain AD169); [6]): 4 µM
Nc1nc(-c2ccc(NC(=O)CCN(CC3CCCCC3)C(=O)c3cccnc3)cc2)cs1 [Example 24]	–	–	IC50 (HSV-1 helicase-primase; [5]): 1.2 µM; EC50 (HCMV (strain AD169); [6]): 0.45 µM
Nc1nc(-c2ccc(NC(=O)CN(Cc3ccccc3)C(=O)c3ccc(F)cc3)cc2)cs1 [Example 24]	0.048	14	–
C[C@@H](NCCC(=O)Nc1ccc(-c2csc(N)n2)cc1)c1ccccc1 [Example 25]	–	–	IC50 (HSV-1 helicase-primase; [5]): 13.6 µM; EC50 (HCMV (strain AD169); [6]): 1 µM
Nc1nc(-c2ccc(NC(=O)CN(Cc3ccccc3)C(=O)Cc3ccccc3)cc2)cs1 [Example 26]	0.5	1.8	–
Nc1nc(-c2ccc(NC(=O)CN(Cc3ccccc3)C(=O)c3ccccn3)cc2)cs1 [Example 27]	1	7	MCC at 192 h [1, 2]: 36 µM
Nc1nc(-c2ccc(NC(=O)CN(Cc3ccccc3)C(=O)c3cccnc3)cc2)cs1 [Example 28]	0.43	4.6	–
Nc1nc(-c2ccc(NC(=O)CN(Cc3ccccc3)C(=O)c3ccncc3)cc2)cs1 [Example 29]	0.24	12	–
Nc1nc(-c2ccc(NC(=O)CN(Cc3ccccc3)C(=O)c3cc[n+]([O-])cc3)cc2)cs1 [Example 30]	0.44	77	–
Nc1nc(-c2ccc(NC(=O)CN(Cc3ccccc3)C(=O)Cc3ccccn3)cc2)cs1 [Example 31]	1.6	1.3	–
Nc1nc(-c2ccc(NC(=O)CN(Cc3ccccc3)C(=O)c3cccs3)cc2)cs1 [Example 32]	0.42	5.4	–
Nc1nc(-c2ccc(NC(=O)CN(Cc3ccccc3)C(=O)c3cnccn3)cc2)cs1 [Example 33]	1.1	28.2	–
Nc1nc(-c2ccc(NC(=O)CN(Cc3ccccc3)C(=O)C3CCCCC3)cc2)cs1 [Example 34]	0.026	1	–
Nc1nc(-c2ccc(NC(=O)CN(Cc3ccccc3)C(=O)C3CCCC3)cc2)cs1 [Example 36]	0.041	2.8	–
Nc1nc(-c2ccc(NC(=O)CN(Cc3ccccc3)C(=O)CC3CCCCC3)cc2)cs1 [Example 38]	0.088	4	–
Nc1nc(-c2ccc(NC(=O)CN(Cc3ccccc3)C(=O)CC3CCCC3)cc2)cs1 [Example 39]	0.059	6.1	–
CC(C)(C)C(=O)N(CC(=O)Nc1ccc(-c2csc(N)n2)cc1)Cc1ccccc1 [Example 41]	0.8	14	–
CC(C)(C)CC(=O)N(CC(=O)Nc1ccc(-c2csc(N)n2)cc1)Cc1ccccc1 [Example 42]	0.026	6	–
CC(C)C(=O)N(CC(=O)Nc1ccc(-c2csc(N)n2)cc1)Cc1ccccc1 [Example 43]	1.6	25	–

SMILES	IC50 (HSV-1 helicase-primase; Group 1 Table 1 entries) [µM]	EC50 (HCMV (strain AD169); [3]) [µM]	other results
CC(=O)N(CC(=O)Nc1ccc(-c2csc(N)n2)cc1)Cc1ccccc1 [Example 44]	3.3	16	–
Nc1nc(-c2ccc(NC(=O)CN(Cc3ccccn3)C(=O)C3CCCCC3)cc2)cs1 [Example 47]	0.072	19	–
Nc1nc(-c2ccc(NC(=O)CN(Cc3cccnc3)C(=O)C3CCCCC3)cc2)cs1 [Example 48]	0.14	5	–
Nc1nc(-c2ccc(NC(=O)CN(Cc3ccncc3)C(=O)C3CCCCC3)cc2)cs1 [Example 49, N-{2-{{4-(2-amino-4-thiazolyl)phenyl}amino}-2-oxoethyl}-N-(4-pyridinylmethyl)cyclohexanecarboxamide]	0.037	25	–
Nc1nc(-c2ccc(NC(=O)CN(CCc3ccccn3)C(=O)C3CCCCC3)cc2)cs1 [Example 50]	0.6	1.6	–
Nc1nc(-c2ccc(NC(=O)CN(Cc3cccs3)C(=O)C3CCCCC3)cc2)cs1 [Example 51]	0.063	6	–
C[C@H](c1ccccc1)N(CC(=O)Nc1ccc(-c2csc(N)n2)cc1)C(=O)C1CCCCC1 [Example 52]	0.087	1.3	–
C[C@@H](c1ccccc1)N(CC(=O)Nc1ccc(-c2csc(N)n2)cc1)C(=O)C1CCCCC1 [Example 53]	0.038	3.2	–
C[C@@H](c1ccccc1)N(CC(=O)Nc1ccc(-c2csc(N)n2)cc1)C(=O)c1ccncc1 [Example 58]	0.19	5.2	–
Nc1nc(-c2ccc(NC(=O)CN(CC3CCCCC3)C(=O)c3ccccc3)cc2)cs1 [Example 60]	1.5	3	–
Nc1nc(-c2ccc(NC(=O)CN(CC3CCCCC3)C(=O)C3CCNCC3)cc2)cs1 [Example 62]	–	2.2	inhibition at 50 µM (HSV-1 helicase-primase; Group 1 Table 1 entries, at 50 μM, read-out: inhibition at 50 μM (printed in the HSV-1 IC50 column)): 29%
Nc1nc(-c2ccc(NC(=O)CN(CC3CCCCC3)C(=O)C3CCCC3)cc2)cs1 [Example 63]	0.78	2.2	MCC at 192 h [1, 2]: 21 µM
Nc1nc(-c2ccc(NC(=O)CN(CCc3ccccc3)C(=O)C3CCCC3)cc2)cs1 [Example 66]	0.4	0.35	–
CC(C)(C)OC(=O)NCC(=O)N(CC(=O)Nc1ccc(-c2csc(N)n2)cc1)Cc1ccccc1 [Example 72]	0.65	7.5	–
Nc1nc(-c2ccc(NC(=O)CN(CC3CCCCC3)C(=O)Cc3ccccc3)cc2)cs1 [Example 77]	0.37	6.1	–
Nc1nc(-c2ccc(NC(=O)CN(CCc3ccccn3)C(=O)C3CCCC3)cc2)cs1 [Example 79]	0.84	3.8	–
CC(C)(C)CN(CC(=O)Nc1ccc(-c2csc(N)n2)cc1)C(=O)C1CCCCC1 [Example 80]	0.96	9.5	–
CCCC(CCC)N(CC(=O)Nc1ccc(-c2csc(N)n2)cc1)C(=O)C1CCCCC1 [Example 82]	0.62	8.1	MCC at 192 h [1, 2]: 7 µM
Nc1nc(-c2ccc(NC(=O)CN(Cc3ccc(F)cc3)C(=O)c3ccncc3)cc2)cs1 [Example 84]	0.36	5.6	–
CC(C)(C)OC(=O)N(CC(=O)Nc1ccc(-c2csc(N)n2)cc1)Cc1ccccc1 [Example 85]	0.016	0.6	–
C[C@@H](c1ccccc1)N(CC(=O)Nc1ccc(-c2csc(N)n2)cc1)C(=O)OC(C)(C)C [Example 89]	0.098	0.9	–
CC(C)(C)OC(=O)N(CC(=O)Nc1ccc(-c2csc(N)n2)cc1)Cc1ccncc1 [Example 90]	0.058	3.5	–
CC(C)(C)NC(=S)N(CC(=O)Nc1ccc(-c2csc(N)n2)cc1)Cc1ccccc1 [Example 93]	0.16	0.25	–
Nc1nc(-c2ccc(NC(=O)CN(Cc3ccccc3)S(=O)(=O)c3ccccc3)cc2)cs1 [Example 97]	0.31	> 5	–
CCC(CC)C(=O)N(CC(=O)Nc1ccc(-c2csc(N)n2)cc1)Cc1ccccc1 [Example 104]	0.078	1.9	MCC at 192 h [1, 2]: 18 µM
CN(C)CCN(CC(=O)Nc1ccc(-c2csc(N)n2)cc1)C(=O)C1CCCCC1 [Example 140]	48	1.4	–
